The NIST ThermoML archive (doi:10.1016/j.jct.2018.04.019)

Conditions: Liquid, Vibrating tube method

Cc1ccccc1 [toluene]
Conditions	mass density [kg/m3]
283.16 K, 1020 kPa	876.55
283.16 K, 5010 kPa	879.36
283.16 K, 10030 kPa	882.78
283.16 K, 15050 kPa	886.11
283.16 K, 20080 kPa	889.23
283.16 K, 25060 kPa	892.35
283.16 K, 30040 kPa	895.27
283.16 K, 35080 kPa	898.24
283.16 K, 40060 kPa	901.05
283.16 K, 45050 kPa	903.77
283.16 K, 50010 kPa	906.43
283.16 K, 55060 kPa	909.09
283.16 K, 60030 kPa	911.65
283.16 K, 65050 kPa	914.15
298.15 K, 1040 kPa	862.88
298.15 K, 5040 kPa	865.93
298.15 K, 10030 kPa	869.6
298.15 K, 15050 kPa	873.21
298.15 K, 20040 kPa	876.63
298.15 K, 25050 kPa	879.93
298.15 K, 30060 kPa	883.14
298.15 K, 35020 kPa	886.25
298.15 K, 40040 kPa	889.26
298.15 K, 45070 kPa	892.2
298.15 K, 50040 kPa	895.06
298.15 K, 55040 kPa	897.86
298.15 K, 60030 kPa	900.56
298.15 K, 65020 kPa	903.2
323.15 K, 1050 kPa	839.46
323.15 K, 5050 kPa	843.04
323.15 K, 10030 kPa	847.29
323.15 K, 15010 kPa	851.38
323.15 K, 20010 kPa	855.27
323.15 K, 25060 kPa	859.05
323.15 K, 30080 kPa	862.69
323.15 K, 35020 kPa	866.13
323.15 K, 40010 kPa	869.52
323.15 K, 45060 kPa	872.84
323.15 K, 50010 kPa	875.93
323.15 K, 55010 kPa	879.01
323.15 K, 60050 kPa	882.04
323.15 K, 65030 kPa	884.91
348.15 K, 1060 kPa	815.55
348.15 K, 5070 kPa	819.75
348.15 K, 10010 kPa	824.67
348.15 K, 15030 kPa	829.43
348.15 K, 20030 kPa	833.88
348.15 K, 25020 kPa	838.2
348.15 K, 30080 kPa	842.3
348.15 K, 35050 kPa	846.21
348.15 K, 40050 kPa	849.97
348.15 K, 45070 kPa	853.63
348.15 K, 50020 kPa	857.09
348.15 K, 55060 kPa	860.49
348.15 K, 60040 kPa	863.8
348.15 K, 65070 kPa	867
373.15 K, 1050 kPa	790.86
373.15 K, 5020 kPa	795.87
373.15 K, 10040 kPa	801.74
373.15 K, 15040 kPa	807.26
373.15 K, 20030 kPa	812.38
373.15 K, 25080 kPa	817.35
373.15 K, 30070 kPa	821.93
373.15 K, 35040 kPa	826.36
373.15 K, 40040 kPa	830.59
373.15 K, 45030 kPa	834.57
373.15 K, 50040 kPa	838.5
373.15 K, 55040 kPa	842.23
373.15 K, 60010 kPa	845.81
398.15 K, 1070 kPa	765.25
398.15 K, 5030 kPa	771.26
398.15 K, 10040 kPa	778.22
398.15 K, 15080 kPa	784.74
398.15 K, 20010 kPa	790.62
398.15 K, 25050 kPa	796.25
398.15 K, 30040 kPa	801.49
398.15 K, 35040 kPa	806.48
398.15 K, 40020 kPa	811.17
398.15 K, 45040 kPa	815.71
398.15 K, 50020 kPa	819.96
398.15 K, 55040 kPa	824.15
398.15 K, 60020 kPa	828.11
398.15 K, 65080 kPa	831.99
423.15 K, 1050 kPa	738.06
423.15 K, 5030 kPa	745.45
423.15 K, 10060 kPa	753.93
423.15 K, 15030 kPa	761.54
423.15 K, 20000 kPa	768.41
423.15 K, 25020 kPa	774.89
423.15 K, 30020 kPa	780.87
423.15 K, 35060 kPa	786.56
423.15 K, 40020 kPa	791.82
423.15 K, 45040 kPa	796.87
423.15 K, 50040 kPa	801.63
423.15 K, 55060 kPa	806.24
423.15 K, 60040 kPa	810.55
423.15 K, 65050 kPa	814.77
448.15 K, 1040 kPa	708.96
448.15 K, 5070 kPa	718.48
448.15 K, 10040 kPa	728.71
448.15 K, 15070 kPa	737.86
448.15 K, 20050 kPa	745.94
448.15 K, 25050 kPa	753.39
448.15 K, 30040 kPa	760.21
448.15 K, 35040 kPa	766.59
448.15 K, 40020 kPa	772.48
448.15 K, 45030 kPa	778.13
448.15 K, 50030 kPa	783.39
448.15 K, 55060 kPa	788.44
448.15 K, 60010 kPa	793.17
448.15 K, 65060 kPa	797.83
473.15 K, 1030 kPa	676.8
473.15 K, 5050 kPa	689.34
473.15 K, 10050 kPa	702.19
473.15 K, 15060 kPa	713.2
473.15 K, 20020 kPa	722.73
473.15 K, 25040 kPa	731.39
473.15 K, 30010 kPa	739.18
473.15 K, 35040 kPa	746.42
473.15 K, 40050 kPa	753.09
473.15 K, 45060 kPa	759.38
473.15 K, 50050 kPa	765.18
473.15 K, 55020 kPa	770.69
473.15 K, 60030 kPa	775.95
473.15 K, 65020 kPa	780.92
